Measured values: PMC8216263 (Pharmaceutical Biology, 2021)

How the values were obtained:
[1] = Single- and multiple-dose plasma pharmacokinetics of GA and PCA after oral RLQ in healthy subjects; assay type: in vivo, human; conditions: LC-MS/MS after oral RLQ
Experimental: The study protocol was approved by the Ethics Committee of the Second Affiliated Hospital of Tianjin University of Traditional Chinese Medicine. […] Subjects were offered standard meals at 4 and 10 h after dosing. Water was not permitted during the hour before and the hour after dosing, except for 240 mL administered with dosing; additional water intake was allowed at all other times.
In the single-dose study, 8 g of RLQ was administered orally on day 1. A 7-d washout time was designed between single-dose and multiple-dose pharmacokinetic studies. In the multiple-dose study, subjects received multiple doses of RLQ (8 g, t.i.d.) for seven consecutive days from day 8 to day 14 and a single dose of RLQ (8 g) on the morning of day 15. […] Additional pre-dose samples were collected in the morning on days 12, 13 and 14. […] All samples were stored at −80 °C until analysis.
All analytes were extracted from plasma and urine samples by simple protein precipitation extraction method using acetonitrile. Briefly, 5 µL of internal standard solution and 300 μL of acetonitrile were added to the spiked blank matrix (100 μL) and vortexed for 3 min and then centrifuged at 13,000 × g for 10 min. The supernatant was transferred and dried using a flow of nitrogen. The residue was re-dissolved in 100 µL of 10% methanol solution containing 0.1% formic acid. An aliquot of 5 µL solution was injected into the LC-MS/MS system for analysis.
The chromatographic separation was performed on an Acquity Ultra Performance LC instrument (Waters, Milford, MA) with a gradient programme in an ACQUITY UPLC BEH C18 column (2.1 mm × 100 mm, 1.7 μm). […] The injection volume was 2 µL. The mass spectrometry analysis was performed on an AB Sciex Triple Quad 5500 MS (Framingham, MA) equipped with an ESI source.
The peak plasma concentration (Cmax) and time to reach the peak plasma concentration (Tmax) were calculated from the actual plasma concentration data. The area under the plasma concentration-time curve from zero to the last measurable concentration (AUC0–t) was calculated via the linear trapezoidal rule. AUC0–∞ was calculated using the following formula: AUC0–∞ = AUC0–t + Ct/ke, where Ct is the last plasma concentration measured. […] The accumulation index was calculated as AUCss/AUC0–t.

[2] = biological target: T1, BCRP (Homo sapiens, UniProt Q9UNQ0); parameters: method as in Ebert et al. 2006; conditions: Caco-2 cells pre-treated with quercetin, ref Ebert et al. 2006; cited from earlier work
T1 sequence (Q9UNQ0 1-655): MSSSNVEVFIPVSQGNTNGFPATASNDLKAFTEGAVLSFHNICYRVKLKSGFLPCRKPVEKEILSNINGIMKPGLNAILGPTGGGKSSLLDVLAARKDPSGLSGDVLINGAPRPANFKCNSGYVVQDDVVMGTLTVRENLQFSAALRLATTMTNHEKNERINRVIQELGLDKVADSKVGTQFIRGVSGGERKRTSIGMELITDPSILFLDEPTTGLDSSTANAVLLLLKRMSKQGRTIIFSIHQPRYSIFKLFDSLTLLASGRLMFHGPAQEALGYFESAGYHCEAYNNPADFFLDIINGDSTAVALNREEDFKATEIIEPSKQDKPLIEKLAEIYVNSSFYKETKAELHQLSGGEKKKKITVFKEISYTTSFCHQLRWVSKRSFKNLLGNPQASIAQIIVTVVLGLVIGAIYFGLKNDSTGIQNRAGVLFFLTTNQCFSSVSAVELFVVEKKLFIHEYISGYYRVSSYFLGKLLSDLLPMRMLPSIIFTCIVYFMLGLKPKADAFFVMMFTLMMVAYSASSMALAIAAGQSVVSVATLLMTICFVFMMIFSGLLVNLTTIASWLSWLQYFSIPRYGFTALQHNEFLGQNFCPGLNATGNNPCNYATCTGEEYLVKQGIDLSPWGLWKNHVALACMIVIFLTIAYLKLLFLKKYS

SMILES | response in human plasma and urine samples [1] | apical transport of BCRP-mediated benzo(a)pyrene-3-sulphate [2]
O=c1c(O)c(-c2ccc(O)cc2)oc2cc(O)cc(O)c12 [kaempferol] | little or no response | –
O=c1c(O)c(-c2ccc(O)c(O)c2)oc2cc(O)cc(O)c12 [quercetin] | little or no response | increase
